Consider 5 compounds from US4871727A, “Anti-inflammatory and antidegenerative compounds isolated from L-681,512” (Merck & Co, Inc., priority 1987, dated 1989).

The target in the assay is T1, Human Polymorphonuclear Leukocyte Elastase (Homo sapiens, UniProt P08246).
T1 construct: Crude extract of human polymorphonuclear leukocytes (PMN) containing elastase activity; endogenous in cells; host or cells: human polymorphonuclear leukocytes (crude extract)
T1 sequence (P08246 30-247 limits assumed): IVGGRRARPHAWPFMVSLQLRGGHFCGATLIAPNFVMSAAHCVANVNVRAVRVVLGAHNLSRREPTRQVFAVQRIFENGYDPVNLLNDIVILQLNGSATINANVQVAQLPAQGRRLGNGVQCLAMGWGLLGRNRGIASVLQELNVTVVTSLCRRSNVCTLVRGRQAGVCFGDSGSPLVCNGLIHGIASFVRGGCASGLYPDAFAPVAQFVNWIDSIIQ
In words: Inhibition of human polymorphonuclear leukocyte (PMN) elastase via hydrolysis of N-t-Boc-alanyl-alanyl-prolyl-alanine-p-nitroanilide (two point or "zero time" assay). Format: biochemical. The conditions noted are these: 50% inhibition of the enzyme activity 2 minutes after zero time; crude human PMN extract; 0.2 mM Boc-AAPAN, pH 7.5, 410 nm; read-out: ED50 (the source's name) (converted). The text has this: It is generally understood that the enzyme of interest is that enzyme against which the inhibitory activity of the fermentation broth samples are being determined and quantified (e.g., PMN elastase). Consequently, all of the remaining wells are charged with the same enzyme of interest. However, several enzymes of interest can be charged to a plurality of wells, and the wells grouped together to facilitate separate identification and assay. When this is done, separate control wells must then also be prepared to correspond to the different enzymes of interest.
The chromogenic medium is charged to all the wells at substantially the same time and the time of this addition is noted. This is the "zero time" mentioned earlier as it is from that moment that a predetermined time lapse is measured during which sufficient reaction between the fermentation broth samples and the enzyme of interest occurs to enable not only accurate screening of enzyme inhibitory activity, but also the degree of that activity. Naturally, the predetermined time lapse will differ with different enzymes and can be from about 1 minute to about 20 minutes, typically from about 2 minutes to about 10 minutes.
The chromogenic media typically used are aromatic nitro- containing compounds. Illustrative of such compounds are Boc-ala-ala-pro-ala-p-nitroanilide, -α-benzoyl-DL-arginine-p-nitroanilide, N-α-benzoyl-L-tyrosine-p-nitroanilide, and the like.
Using the two point or "zero time" assay method described above, the following protocol was employed:
Enzyme Assays for the Inhibition of Human Polymorphonuclear Leukocyte Elastase Via Hydrolysis of N-t-Boc-alanyl-alanyl-prolylalanine-p-nitroanilide
0.05M TES (N-tris[hydroxymethyl]methyl-2-amino-ethanesulfonic acid) Buffer, pH 7.5.
0.2 mM N-t-Boc-alanyl-alanyl-prolyl-alanine-p-nitroanilide (Boc-AAPAN).
To prepare substrate, the solid (m.w. 550) was first dissolved in 10.1 ml DMSO. Buffer at pH 7.5 was then added to a final volume of 100 ml.
Crude extract of human polymorphonuclear leukocytes (PMN) containing elastase activity.
Inhibitors (cephalosporin sulfone esters) to be tested dissolved in DMSO just before use.
To 1.0 ml of 0.2 mM Boc-AAPAN in a cuvette, 0.01-0.1 ml of DMSO with or without inhibitor was added. After mixing, a measurement was taken at 410 nm to detect any spontaneous hydrolysis due to presence of test compound. 0.05 Milliliters of PMN extract was then added and the ΔOD/min at 410 nm was measured and recorded. A Beckman model 35 spectrophotometer was used.
Results were reported as ED50, i.e., effective dosage in micrograms per milliliter (μg/ml) for 50% inhibition of the enzyme activity 2 minutes after zero time.
The elastase activity in the crude PMN extract may vary from one preparation to another. A control of each new batch is run, and the volume added in the assay procedure is adjusted according to activity.

Structures are written as SMILES.

As for `C=C(CCC(C)[C@H]1CC=C2C3=C([C@@H](OC(C)=O)[C@H](OC(C)=O)C21C)C1(C)C[C@@H](OC(C)=O)[C@H](OS(=O)(=O)O)C(C)(C)[C@@H]1CC3)C(C)C` (some centres unmarked) [Compound 10], the IC50 is 262000 nM. In the case of `C=C(CCC(C)[C@H]1CC=C2C3=C([C@@H](O)[C@H](OC(C)=O)C21C)C1(C)C[C@@H](O)[C@H](O)C(C)(C)[C@@H]1CC3)C(C)C` (some centres unmarked) [Compound 5], the IC50 is 1750 nM. To `C=C(CCC(C)[C@H]1CC=C2C3=C([C@@H](O)[C@H](OC(C)=O)C21C)C1(C)C[C@@H](O)[C@H](OS(=O)(=O)O)C(C)(C)[C@@H]1CC3)C(C)C` (some centres unmarked) [Compound 1] belongs 2350 nM; to `C=C(CCC(C)[C@H]1CC=C2C3=C([C@@H](O)[C@H](O)C21C)C1(C)C[C@@H](O)[C@H](OS(=O)(=O)O)C(C)(C)[C@@H]1CC3)C(C)C` (some centres unmarked) [Compound 11], 3440 nM. `C=C(CCC(C)[C@H]1CCC2C3=C([C@@H](O)[C@H](OC(C)=O)C21C)C1(C)C[C@@H](O)[C@H](OS(=O)(=O)O)C(C)(C)[C@@H]1CC3)C(C)C` (some centres unmarked) [Compound 2]: the IC50 is 2510 nM.
